Source: ChEMBL document CHEMBL5725801, “Fused heterocyclic compounds as CaM kinase inhibitors” (2018)

Assay: CaMKII Cell-Based Activity: CaMKII activity in neonatal rat ventricular myocytes (NRVM) was measured by monitoring the phosphorylation level of phospholamban using high-content imaging. NRVMs were plated in a clear bottom 384-well plate in medium supplemented with 10% fetal bovine serum (FBS) and incubated at 37° C., 5% CO2 overnight. The medium was changed to a serum-free medium and compounds were dosed to the cells. The cells were incubated at 37° C., 5% CO2 for 4 hours and were then treated with 100 nM ATX-II (Alomone Labs) to activate CaMKII. 10 minutes after the addition of ATX-II, the cells were fixed with 4% formaldehyde followed by permeabilization with 0.1% triton X100. The fixed cells were stained with an anti-phospho-phospholamban primary antibody (Santa Cruz Biotechnology) and an Alexa488-labeled anti-rabbit IgG secondary antibody (Life Technologies Corporation) as well as Hoechst 33342 (Life Technologies Corporation). The cells were imaged using an ArrayScan VTI (Cellomics) and analyzed for cells containing a positive fluorescent signal at 485 nm, reported as % responder. The % responders were plotted against the compound concentration to determine the compounds EC50.

EC50 [nM] | SMILES
44.1 | CC(C)C(N)CNC(=O)c1ccnc(-c2cnn3ccc(-c4ccccc4)nc23)c1 (stereo not drawn)
316 | NC[C@H]1CC(F)(F)CN1C(=O)c1ccnc(-c2cnn3ccc(-c4cccs4)nc23)c1
15.3 | CCN[C@@H](C)CNC(=O)c1cc(-c2cnn3ccc(-c4ccccc4)nc23)nc(C2CC2)c1
28.1 | CCN(CC)[C@@H](C)CNC(=O)c1cc(-c2cnn3ccc(-c4cccs4)nc23)nc(N2CC(NS(=O)(=O)C3CC3)C2)c1
40.2 | CCN(CC)[C@@H](C)CNC(=O)c1cc(-c2cnn3ccc(-c4cccs4)nc23)nc(N2CCC2)c1
126 | CCN(CC)[C@@H](C)CNC(=O)c1cc(NS(=O)(=O)CC)nc(-c2cnn3ccc(-c4cccs4)nc23)c1
26.4 | CCN(CC)[C@@H](C)CNC(=O)c1cc(-c2cnn3ccc(-c4cccs4)nc23)nc(N2CC(NS(C)(=O)=O)C2)c1
70.4 | CCN(CC)[C@@H](C)CNC(=O)c1cc(-c2c[nH]nc2C)nc(-c2cnn3ccc(-c4cccs4)nc23)c1
64.2 | CCN(CC)[C@@H](C)CNC(=O)c1cc(OCCc2cnccn2)nc(-c2cnn3ccc(-c4cccs4)nc23)c1
514 | CCN(CC)[C@@H](C)CNC(=O)c1cc(-c2cnn3ccc(-c4cccs4)nc23)nc(N2C[C@@H]3C[C@H]2CO3)c1
50.5 | CCN(CC)[C@@H](C)CNC(=O)c1cc(-c2cnn3ccc(-c4cccs4)nc23)nc(N2CC(S(=O)(=O)NC)C2)c1
49 | CN(C)c1cc(C(=O)N2CCCC[C@@H]2CN)cc(-c2cnn3ccc(-c4cccs4)nc23)n1
386 | O=C(NC[C@@H]1C[C@H](F)CN1)c1ccnc(-c2cnn3ccc(-c4cccs4)nc23)c1
102 | CCN(CC)[C@@H](C)CNC(=O)c1cc(-c2cnn3ccc(-c4cccs4)nc23)nc(C(F)(F)F)c1
33 | CCN[C@@H](C)CNC(=O)c1ccnc(-c2cnn3ccc(-c4cccs4)nc23)c1
16.9 | CCN(CC)[C@@H](C)CNC(=O)c1cc(-c2cnn3ccc(-c4ccccc4)nc23)nc(N2CC(OC)C2)c1
19.9 | CCN(CC)[C@@H](C)CNC(=O)c1cc(-c2cnn3ccc(-c4cccs4)nc23)nc(N2CC(OC(F)F)C2)c1
107 | CCN(CC)[C@@H](C)CNC(=O)c1cc(-c2cnn3ccc(-c4cccs4)nc23)nc(N2CC(CO)(CO)C2)c1
288 | COc1cc(C(=O)N2CCCC[C@H]2CN)cc(-c2cnn3ccc(-c4ccccc4)nc23)n1

EC50 [nM] | SMILES
13.5 | CCN(CC)[C@@H](C)CNC(=O)c1cc(-c2cn[nH]c2)nc(-c2cnn3ccc(-c4cccs4)nc23)c1
42.9 | CCCNC(CNC(=O)c1ccnc(-c2cnn3ccc(-c4ccccc4)nc23)c1)C(C)C (stereo not drawn)
23.4 | CCN(CC)[C@@H](C)CNC(=O)c1cc(NCC2(C)COC2)nc(-c2cnn3ccc(-c4cccs4)nc23)c1
41.6 | CCN(CC)[C@@H](C)CNC(=O)c1cc(-c2cnn3ccc(-c4cccs4)nc23)nc(N2CC[C@H]2C(=O)NCC(F)(F)F)c1
247 | CCN(CC)[C@@H](C)CNC(=O)c1cc(Nc2ncc[nH]2)nc(-c2cnn3ccc(-c4cccs4)nc23)c1
31.2 | CCCC(CNC(=O)c1ccnc(-c2cnn3ccc(-c4ccccc4)nc23)c1)N(CC)CC (stereo not drawn)
143 | CCOC(=O)Nc1cc(C(=O)NC[C@H](C)N(CC)CC)cc(-c2cnn3ccc(-c4cccs4)nc23)n1
114 | CCN(CC)[C@@H](C)CNC(=O)c1cc(-c2cnn3ccc(-c4cccs4)nc23)nc(N2CCC[C@H]2C(=O)NC)c1
604 | CCN[C@@H](C)CNC(=O)c1cc(-c2cnn3ccc(-c4cccs4)nc23)nc(N2CC(O)C2)c1
11.2 | CCN(CC)[C@@H](C)CNC(=O)c1cc(-c2cnn3ccc(-c4cccs4)nc23)nc(N2CCCS2(=O)=O)c1
41.5 | O=C(NCC12CCCN1CCC2)c1ccnc(-c2cnn3ccc(-c4cccs4)nc23)c1
46.6 | CCN(CC)[C@@H](C)CNC(=O)c1cc(-c2cnn3ccc(-c4cccs4)nc23)nc(N2CCC(O)CC2)c1
20.5 | CCN(CC)[C@@H](C)CNC(=O)c1cc(NC(=O)C(C)C)nc(-c2cnn3ccc(-c4cccs4)nc23)c1
213 | NC[C@@H]1CCCCN1C(=O)c1cc(Cl)nc(-c2cnn3ccc(-c4ccccc4)nc23)c1
25.6 | CCN(CC)[C@@H](C)CNC(=O)c1cc(-c2cnn3ccc(-c4cccs4)nc23)nc(N2CC[C@H]2C(=O)N(C)O)c1
243 | NC[C@@H]1CCCCN1C(=O)c1cc(Cl)nc(-c2cnn3ccc(-c4cccs4)nc23)c1
95.9 | CCN(CC)[C@@H](C)CNC(=O)c1cc(NS(=O)(=O)C2CC2)nc(-c2cnn3ccc(-c4cccs4)nc23)c1
90.5 | CCN[C@@H](C)CNC(=O)c1cc(-c2cnn3ccc(-c4cccs4)nc23)nc(N2CC(OC)C2)c1
88.8 | CC(C)C(CNC(=O)c1ccnc(-c2cnn3ccc(-c4ccccc4)nc23)c1)NCC1CC1 (stereo not drawn)

EC50 [nM] | SMILES
22.3 | CCN(CC)[C@@H](C)CNC(=O)c1cc(-c2cnn3ccc(-c4cccs4)nc23)nc(N2CC[C@H]2C(=O)N2CCCC2)c1
27.5 | CCN(CC)[C@@H](C)CNC(=O)c1cc(NCCN2CCOCC2)nc(-c2cnn3ccc(-c4cccs4)nc23)c1
25.2 | CCN(CC)C(=O)[C@@H]1CCN1c1cc(C(=O)NC[C@H](C)N(CC)CC)cc(-c2cnn3ccc(-c4cccs4)nc23)n1
146 | CCN(CC)[C@@H](C)CNC(=O)c1cc(-c2cnn3ccc(-c4ccccc4)nc23)nc(N2CC[C@H]2C(=O)NC)c1
129 | CCN(CC)[C@@H](C)CNC(=O)c1cc(N[C@@H](C)C(=O)NC)nc(-c2cnn3ccc(-c4cccs4)nc23)c1
28 | CCN(CC)[C@@H](C)CNC(=O)c1cc(-c2cnn3ccc(-c4cccs4)nc23)nc(N2CC[C@H]2C(=O)NC2CC2)c1
132 | O=C(NC[C@@H]1CCN1)c1ccnc(-c2cnn3ccc(-c4cccs4)nc23)c1
46 | CCN(CC)[C@@H](C)CNC(=O)c1cc(-c2cnn3ccc(-c4cccs4)nc23)nc(N2CCC(C)(O)CC2)c1
779 | C[C@@H](CNC(=O)c1ccnc(-c2cnn3ccc(-c4ccccc4)nc23)c1)NCc1ncccn1
14.9 | CCN(CC)[C@@H](C)CNC(=O)c1cc(-c2cnn3ccc(-c4ccsc4)nc23)nc(N2CC(OC)C2)c1
20.3 | CCN(CC)[C@@H](C)CNC(=O)c1cc(-c2c[nH]nc2C(F)(F)F)nc(-c2cnn3ccc(-c4cccs4)nc23)c1
211 | Cc1cc(C(=O)N2CCC[C@@H]2CN)cc(-c2cnn3ccc(-c4ccccc4)nc23)n1
7290 | CCN(CC)[C@@H](C)CNC(=O)c1cc(NC2COC2)nc(-c2cnn3ccc(-c4cccs4)nc23)c1
26.5 | CCN(CC)[C@@H](C)CNC(=O)c1cc(-c2cnn3ccc(-c4cccs4)nc23)nc(N2CC(O)(C(F)(F)F)C2)c1
471 | COc1cc(C(=O)N2CC[C@H](N)C2)cc(-c2cnn3ccc(-c4ccccc4)nc23)n1
326 | COC1CN(c2cc(C(=O)NC[C@@H]3CCCN3C)cc(-c3cnn4ccc(-c5cccs5)nc34)n2)C1
65.6 | O=C(c1ccnc(-c2cnn3ccc(-c4ccccc4)nc23)c1)N1CCC2CCNCC21 (stereo not drawn)
181 | CCN1CCC[C@H]1CNC(=O)c1cc(-c2cnn3ccc(-c4cccs4)nc23)nc(N2CC(OC)C2)c1
17.7 | CCN(CC)[C@@H](C)CNC(=O)c1cc(-c2cnn3ccc(-c4cccs4)nc23)nc(N2CC(O)C2)c1

SMILES | EC50 [nM]
COC1CN(c2cc(C(=O)N3CC4CCC(C3)NC4)cc(-c3cnn4ccc(-c5cccs5)nc34)n2)C1 (stereo not drawn) | 63.6
